Source: publication PMC6517080 (Chembiochem : a European journal of chemical biology, 2018)

Biological target: antithrombin (AT) (Homo sapiens, UniProt P01008)
Assay: ITC
Format: binding

Sequence of antithrombin (AT) (P01008 33-464): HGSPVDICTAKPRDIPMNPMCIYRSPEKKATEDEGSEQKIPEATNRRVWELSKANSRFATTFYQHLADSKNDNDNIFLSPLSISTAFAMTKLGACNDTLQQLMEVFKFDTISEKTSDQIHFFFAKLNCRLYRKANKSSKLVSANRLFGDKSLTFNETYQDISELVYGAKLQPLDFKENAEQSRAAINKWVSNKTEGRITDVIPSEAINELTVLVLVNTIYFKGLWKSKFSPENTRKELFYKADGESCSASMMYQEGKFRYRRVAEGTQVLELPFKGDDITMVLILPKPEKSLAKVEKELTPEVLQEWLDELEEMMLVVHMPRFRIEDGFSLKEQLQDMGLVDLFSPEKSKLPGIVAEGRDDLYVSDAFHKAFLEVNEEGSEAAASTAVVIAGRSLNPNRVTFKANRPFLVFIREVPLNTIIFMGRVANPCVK

Row | Compound | Kd
1 | O=C(O)[C@H]1O[C@@H](Oc2ccc([N+](=O)[O-])cc2)[C@H](O)[C@@H](O)[C@@H]1O[C@H]1O[C@H](COS(=O)(=O)O)[C@@H](O[C@@H]2O[C@@H](C(=O)O)[C@@H](O[C@H]3O[C@H](COS(=O)(=O)O)[C@@H](O[C@@H]4O[C@H](C(=O)O)[C@@H](O[C@H]5O[C@H](COS(=O)(=O)O)[C@@H](O)[C@H](O)[C@H]5NS(=O)(=O)O)[C@H](O)[C@H]4O)[C@H](OS(=O)(=O)O)[C@H]3NS(=O)(=O)O)[C@H](O)[C@H]2OS(=O)(=O)O)[C@H](O)[C@H]1NS(=O)(=O)O [hexa-4] | 551 nM
2 | O=C(O)[C@H]1O[C@@H](Oc2ccc([N+](=O)[O-])cc2)[C@H](O)[C@@H](O)[C@@H]1O[C@H]1O[C@H](COS(=O)(=O)O)[C@@H](O[C@@H]2O[C@@H](C(=O)O)[C@@H](O[C@H]3O[C@H](COS(=O)(=O)O)[C@@H](O[C@@H]4O[C@H](C(=O)O)[C@@H](O[C@H]5O[C@H](COS(=O)(=O)O)[C@@H](O)[C@H](O)[C@H]5NS(=O)(=O)O)[C@H](O)[C@H]4O)[C@H](OS(=O)(=O)O)[C@H]3NS(=O)(=O)O)[C@H](O)[C@H]2O)[C@H](O)[C@H]1NS(=O)(=O)O [hexa-8] | 1290 nM
